The values that follow come from ChEMBL document CHEMBL1201862, “PubChem BioAssay data set” (2004).

The structures appear in SMILES notation.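 96-well plates; 48 h exposure; 5 concentrations. Endpoints by linear interpolation between flanking doses. Not reached: highest tested concentration assigned. GI50 marks 50% less growth.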 The source made the active and inactive calls. Rule as the data show it: active = GI50 up to about 1.1 µM and inactive = higher.

Some test systems named below: NCI-H522; HL-60; A498; UACC-62; A549; NCI/ADR-RES; CAKI-1; HOP-62; EKVX; CCRF-CEM; UO-31; U-251; HOP-92; M14; HCC 2998; DU-145; TK-10; SK-MEL-5; SNB-19; SNB-75.
Common to all, as to experiment: DTP human tumour cell line panel, 48 h

A word on the GI50: it is the concentration at which growth is held to half of that of the control. As for `O=C(CN1CCCC1)Nc1ccc2c(c1)C1Oc3ccccc3CC1CO2` (configuration not stated), the GI50 in the assay on NCI-H522 is 32.4 µM (inactive); in the assay on HL-60, 46.6 µM (inactive); with A498, > 100 µM (inactive); in the assay on UACC-62 it was 17 µM (inactive); with A549 it was 41.7 µM (inactive); in the assay on NCI/ADR-RES it was 73.3 µM (inactive). Besides, the GI50 in the assay with CAKI-1 was 49.3 µM (inactive); with HOP-62, 19.7 µM (inactive); in the assay with EKVX, 69.3 µM (inactive); in the assay on CCRF-CEM it was 47.2 µM (inactive); in the assay on UO-31, 22.1 µM (inactive); in the assay on U-251 it was 21.2 µM (inactive). Also, the GI50 in the assay on HOP-92 is 16.7 µM (inactive); in the assay with M14, 20.1 µM (inactive); in the assay on HCC 2998 it was 16.8 µM (inactive); with DU-145 it was > 100 µM (inactive); in the assay with TK-10, 49 µM (inactive); with SK-MEL-5, 14.6 µM (inactive).

For the compound `O=[N+]([O-])/C=C/c1cn(CCCCCn2cc(/C=C/[N+](=O)[O-])c3ccccc32)c2ccccc12`, the GI50 in the assay on NCI-H522 is 10.4 µM (inactive); with HL-60, 0.787 µM (active); in the assay on A498, 1.94 µM (inactive); in the assay on UACC-62 it was 6.95 µM (inactive); in the assay on A549, 2.96 µM (inactive); in the assay with NCI/ADR-RES it was 10.2 µM (inactive). In addition, the GI50 with CAKI-1 is 17.7 µM (inactive); with HOP-62, 3.93 µM (inactive); with EKVX, 11.6 µM (inactive); with CCRF-CEM, 1.04 µM (active); in the assay with UO-31, 3.64 µM (inactive); in the assay on U-251, 1.61 µM (inactive). Further, the GI50 in the assay on HOP-92 was 19.8 µM (inactive); with SNB-19 it was 6.73 µM (inactive); in the assay on M14, 1.44 µM (inactive); with HCC 2998, 1.04 µM (active); with DU-145, 2.19 µM (inactive); in the assay with TK-10, 1.82 µM (inactive). For the same compound, in the assay with SK-MEL-5, the GI50 was 1.75 µM (inactive).

With `COC(=O)c1c(O)ccc2c1c1c(n2Cc2ccccc2Cl)C(=O)c2ccccc2C1=O`, the GI50 was 10.9 µM (inactive) in the assay with NCI-H522; 16.9 µM (inactive) in the assay with HL-60; 16.5 µM (inactive) with A498; 14.8 µM (inactive) in the assay with UACC-62; 8.69 µM (inactive) in the assay with A549; 12.1 µM (inactive) in the assay on NCI/ADR-RES. Also, the GI50 in the assay with CAKI-1 is 13.7 µM (inactive); in the assay with HOP-62, 26 µM (inactive); in the assay with EKVX it was 16.9 µM (inactive); in the assay with CCRF-CEM, 8.38 µM (inactive); with UO-31, 10.9 µM (inactive); in the assay on U-251, 12.6 µM (inactive). Also, the GI50 in the assay with HOP-92 was 14.8 µM (inactive); in the assay on SNB-19, 16 µM (inactive); in the assay with M14, 15.5 µM (inactive); in the assay on HCC 2998, 14.6 µM (inactive); in the assay with DU-145, 15.5 µM (inactive); in the assay on TK-10, 16.1 µM (inactive). In addition, the GI50 with SK-MEL-5 was 12.5 µM (inactive).

For `CCOC(=O)c1c(NC(=S)Nc2ccc(C)cc2)sc2c1CCN(C)C2`, the GI50 with HL-60 was 94.6 µM (inactive); in the assay with A498 it was 59 µM (inactive); in the assay with UACC-62 it was > 100 µM (inactive); in the assay on A549, > 100 µM (inactive); in the assay on NCI/ADR-RES, > 100 µM (inactive); in the assay on CAKI-1 it was > 100 µM (inactive). The GI50 in the assay with HOP-62, in the assay on EKVX, in the assay on CCRF-CEM, in the assay on UO-31, in the assay on SNB-19 and in the assay on M14 was > 100 µM (inactive) throughout. Further, the GI50 in the assay on DU-145 was > 100 µM (inactive); in the assay with TK-10, > 100 µM (inactive); in the assay with SK-MEL-5 it was > 100 µM (inactive); with SNB-75, < 0.01 µM (active).
